# According to publication PMC11864979, “First-in-class ultralong-target-residence-time p38α inhibitors as a mitosis-targeted therapy for colorectal cancer” (Nature Cancer, 2025):
# Read-outs that look alike come from different tables or passages of the source.
# Legend:
# Experiment in all cases: selectivity profiling in a panel of 340 wild-type kinases (Reaction Biology Europe)
# Format in all cases: binding
# 340 wild-type kinases [1] = biological target: T1, 340 wild-type kinases (Homo sapiens, UniProt Q9UIK4)
# T1 construct: purchased Reaction Biology Europe
# 340 wild-type kinases [2] = biological target: T2, 340 wild-type kinases (Homo sapiens, UniProt Q92630)
# T2 construct: purchased Reaction Biology Europe
# T2 sequence (Q92630 1-601): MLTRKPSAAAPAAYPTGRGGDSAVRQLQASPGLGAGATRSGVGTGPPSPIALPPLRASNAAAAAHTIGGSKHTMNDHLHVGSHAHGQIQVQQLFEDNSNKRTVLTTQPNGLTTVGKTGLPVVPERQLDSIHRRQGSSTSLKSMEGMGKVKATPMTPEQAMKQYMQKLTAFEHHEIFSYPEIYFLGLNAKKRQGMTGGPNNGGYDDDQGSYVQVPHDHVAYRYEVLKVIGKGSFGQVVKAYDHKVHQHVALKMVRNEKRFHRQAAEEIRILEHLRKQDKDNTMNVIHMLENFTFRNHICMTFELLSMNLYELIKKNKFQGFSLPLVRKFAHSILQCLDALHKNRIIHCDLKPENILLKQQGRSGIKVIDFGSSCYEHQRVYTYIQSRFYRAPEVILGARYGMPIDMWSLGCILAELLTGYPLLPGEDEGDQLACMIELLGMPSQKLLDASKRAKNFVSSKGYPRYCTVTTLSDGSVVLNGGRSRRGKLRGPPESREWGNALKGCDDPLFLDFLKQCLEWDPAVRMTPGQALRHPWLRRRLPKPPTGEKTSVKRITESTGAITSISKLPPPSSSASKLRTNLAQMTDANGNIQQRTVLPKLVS
# 340 wild-type kinases [3] = biological target: T3, 340 wild-type kinases (Homo sapiens, UniProt Q96BR1)
# T3 construct: purchased Reaction Biology Europe
# T3 sequence (Q96BR1 1-496): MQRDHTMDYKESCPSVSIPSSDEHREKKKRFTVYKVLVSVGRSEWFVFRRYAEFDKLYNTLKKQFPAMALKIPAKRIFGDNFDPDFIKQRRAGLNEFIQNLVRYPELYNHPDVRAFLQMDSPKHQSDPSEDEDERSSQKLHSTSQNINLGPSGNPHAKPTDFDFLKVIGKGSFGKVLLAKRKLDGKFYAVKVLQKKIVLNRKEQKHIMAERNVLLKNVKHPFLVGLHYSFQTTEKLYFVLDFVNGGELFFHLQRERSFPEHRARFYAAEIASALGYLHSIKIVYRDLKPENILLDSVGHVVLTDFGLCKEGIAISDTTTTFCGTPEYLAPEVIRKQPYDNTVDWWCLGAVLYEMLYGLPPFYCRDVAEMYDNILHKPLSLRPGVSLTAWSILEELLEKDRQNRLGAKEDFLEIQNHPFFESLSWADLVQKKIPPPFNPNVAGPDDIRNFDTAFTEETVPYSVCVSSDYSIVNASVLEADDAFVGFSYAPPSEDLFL
# 340 wild-type kinases [4] = biological target: T4, 340 wild-type kinases (Homo sapiens, UniProt P29376)
# T4 construct: purchased Reaction Biology Europe
# 340 wild-type kinases [5] = biological target: T5, 340 wild-type kinases (Homo sapiens, UniProt P35968)
# T5 construct: purchased Reaction Biology Europe
# 340 wild-type kinases [6] = biological target: T6, 340 wild-type kinases (Homo sapiens, UniProt Q02779)
# T6 construct: purchased Reaction Biology Europe
# 340 wild-type kinases [7] = biological target: T7, 340 wild-type kinases (Homo sapiens, UniProt Q9NZJ5)
# T7 construct: purchased Reaction Biology Europe
# T7 sequence (Q9NZJ5 30-1116): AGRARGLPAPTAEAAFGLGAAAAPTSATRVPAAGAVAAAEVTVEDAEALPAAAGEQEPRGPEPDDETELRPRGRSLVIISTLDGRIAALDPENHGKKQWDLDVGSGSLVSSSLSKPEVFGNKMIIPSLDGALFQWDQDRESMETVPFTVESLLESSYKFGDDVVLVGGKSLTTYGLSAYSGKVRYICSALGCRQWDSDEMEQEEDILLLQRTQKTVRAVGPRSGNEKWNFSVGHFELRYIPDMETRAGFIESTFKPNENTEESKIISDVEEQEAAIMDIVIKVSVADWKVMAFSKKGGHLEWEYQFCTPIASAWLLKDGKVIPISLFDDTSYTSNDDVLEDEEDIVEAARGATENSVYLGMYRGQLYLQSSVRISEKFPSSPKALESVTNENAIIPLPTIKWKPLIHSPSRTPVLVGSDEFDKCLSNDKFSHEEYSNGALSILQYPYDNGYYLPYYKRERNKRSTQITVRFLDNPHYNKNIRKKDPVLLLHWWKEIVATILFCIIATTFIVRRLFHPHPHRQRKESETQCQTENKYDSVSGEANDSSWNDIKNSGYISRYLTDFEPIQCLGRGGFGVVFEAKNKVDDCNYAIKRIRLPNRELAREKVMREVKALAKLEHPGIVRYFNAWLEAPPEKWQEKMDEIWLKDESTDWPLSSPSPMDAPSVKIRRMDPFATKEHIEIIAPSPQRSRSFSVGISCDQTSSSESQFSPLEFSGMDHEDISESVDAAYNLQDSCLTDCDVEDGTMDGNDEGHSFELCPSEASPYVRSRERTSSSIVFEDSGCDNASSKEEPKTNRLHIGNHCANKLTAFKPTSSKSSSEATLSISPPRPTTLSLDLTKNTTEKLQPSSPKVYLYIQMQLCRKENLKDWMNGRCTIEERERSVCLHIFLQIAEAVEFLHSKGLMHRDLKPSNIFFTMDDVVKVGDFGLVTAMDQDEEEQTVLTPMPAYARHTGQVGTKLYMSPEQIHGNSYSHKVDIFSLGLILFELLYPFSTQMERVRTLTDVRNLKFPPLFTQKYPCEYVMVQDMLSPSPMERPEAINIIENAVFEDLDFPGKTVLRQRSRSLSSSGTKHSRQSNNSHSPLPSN
# T5 sequence (P35968 20-1356): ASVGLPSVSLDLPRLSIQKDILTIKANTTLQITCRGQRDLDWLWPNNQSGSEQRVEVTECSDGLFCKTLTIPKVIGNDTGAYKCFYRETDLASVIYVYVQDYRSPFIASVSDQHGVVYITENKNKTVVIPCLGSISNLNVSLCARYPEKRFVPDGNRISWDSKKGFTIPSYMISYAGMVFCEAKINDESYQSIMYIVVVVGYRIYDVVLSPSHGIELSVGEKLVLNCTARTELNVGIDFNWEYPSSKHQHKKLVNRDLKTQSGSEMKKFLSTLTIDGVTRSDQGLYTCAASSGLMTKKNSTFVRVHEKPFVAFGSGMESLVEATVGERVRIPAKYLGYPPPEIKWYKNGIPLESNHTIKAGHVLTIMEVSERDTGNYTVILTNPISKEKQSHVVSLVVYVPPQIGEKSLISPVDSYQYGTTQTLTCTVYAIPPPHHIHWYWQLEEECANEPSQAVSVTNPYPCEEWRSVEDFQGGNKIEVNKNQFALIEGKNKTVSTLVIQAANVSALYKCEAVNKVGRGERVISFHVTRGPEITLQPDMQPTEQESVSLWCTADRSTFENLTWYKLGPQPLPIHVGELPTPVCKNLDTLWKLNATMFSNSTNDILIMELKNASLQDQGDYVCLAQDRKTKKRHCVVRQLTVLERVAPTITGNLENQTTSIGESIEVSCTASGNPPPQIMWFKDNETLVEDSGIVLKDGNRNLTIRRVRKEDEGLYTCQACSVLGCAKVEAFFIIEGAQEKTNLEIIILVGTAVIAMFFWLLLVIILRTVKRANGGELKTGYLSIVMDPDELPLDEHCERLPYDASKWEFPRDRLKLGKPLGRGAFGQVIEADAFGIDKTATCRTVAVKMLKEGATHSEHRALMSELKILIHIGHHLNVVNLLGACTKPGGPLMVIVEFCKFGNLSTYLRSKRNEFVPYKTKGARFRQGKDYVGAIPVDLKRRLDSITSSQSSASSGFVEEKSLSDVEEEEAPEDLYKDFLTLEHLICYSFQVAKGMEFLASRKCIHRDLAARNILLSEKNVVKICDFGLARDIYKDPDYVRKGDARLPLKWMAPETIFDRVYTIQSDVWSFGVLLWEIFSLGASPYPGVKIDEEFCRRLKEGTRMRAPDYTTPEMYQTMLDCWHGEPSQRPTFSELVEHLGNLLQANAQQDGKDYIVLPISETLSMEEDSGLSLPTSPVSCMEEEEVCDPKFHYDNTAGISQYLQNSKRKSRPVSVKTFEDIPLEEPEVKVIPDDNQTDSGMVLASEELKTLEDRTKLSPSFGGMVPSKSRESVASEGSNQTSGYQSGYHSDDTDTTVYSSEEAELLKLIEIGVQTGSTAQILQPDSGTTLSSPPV
# T6 sequence (Q02779 whole entry): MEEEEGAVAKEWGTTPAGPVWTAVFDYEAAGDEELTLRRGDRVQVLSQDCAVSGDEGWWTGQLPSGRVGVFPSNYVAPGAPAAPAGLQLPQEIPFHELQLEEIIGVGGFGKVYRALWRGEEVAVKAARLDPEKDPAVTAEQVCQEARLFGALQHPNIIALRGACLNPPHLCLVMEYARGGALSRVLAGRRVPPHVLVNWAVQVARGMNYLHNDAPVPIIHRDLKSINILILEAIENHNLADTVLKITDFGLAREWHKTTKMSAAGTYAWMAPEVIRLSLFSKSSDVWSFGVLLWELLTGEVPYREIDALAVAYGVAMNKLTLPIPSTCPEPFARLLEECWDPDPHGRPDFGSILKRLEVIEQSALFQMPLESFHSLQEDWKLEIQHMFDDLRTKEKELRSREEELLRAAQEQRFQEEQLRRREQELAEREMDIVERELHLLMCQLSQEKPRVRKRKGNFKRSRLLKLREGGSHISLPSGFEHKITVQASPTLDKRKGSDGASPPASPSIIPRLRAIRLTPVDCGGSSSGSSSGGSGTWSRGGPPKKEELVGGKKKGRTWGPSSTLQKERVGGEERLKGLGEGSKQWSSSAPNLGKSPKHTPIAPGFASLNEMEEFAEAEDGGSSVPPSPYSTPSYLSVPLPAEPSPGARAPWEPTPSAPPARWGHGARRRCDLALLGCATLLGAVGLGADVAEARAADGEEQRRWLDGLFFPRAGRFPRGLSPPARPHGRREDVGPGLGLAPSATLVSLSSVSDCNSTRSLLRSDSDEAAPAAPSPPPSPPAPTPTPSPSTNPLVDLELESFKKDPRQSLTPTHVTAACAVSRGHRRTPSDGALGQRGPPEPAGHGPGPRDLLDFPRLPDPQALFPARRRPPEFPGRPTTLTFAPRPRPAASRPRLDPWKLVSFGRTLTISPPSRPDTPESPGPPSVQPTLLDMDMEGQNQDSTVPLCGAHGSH
# T1 sequence (Q9UIK4 whole entry): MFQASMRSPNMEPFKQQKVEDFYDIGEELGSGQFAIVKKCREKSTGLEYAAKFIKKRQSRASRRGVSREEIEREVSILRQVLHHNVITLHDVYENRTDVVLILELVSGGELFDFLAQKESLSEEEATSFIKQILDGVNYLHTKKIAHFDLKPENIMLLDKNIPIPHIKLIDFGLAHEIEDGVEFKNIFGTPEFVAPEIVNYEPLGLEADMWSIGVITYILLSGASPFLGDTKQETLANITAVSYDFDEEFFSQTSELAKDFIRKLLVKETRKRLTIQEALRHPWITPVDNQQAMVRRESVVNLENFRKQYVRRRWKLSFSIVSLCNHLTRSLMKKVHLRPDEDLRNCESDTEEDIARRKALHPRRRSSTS
# T4 sequence (P29376 17-864): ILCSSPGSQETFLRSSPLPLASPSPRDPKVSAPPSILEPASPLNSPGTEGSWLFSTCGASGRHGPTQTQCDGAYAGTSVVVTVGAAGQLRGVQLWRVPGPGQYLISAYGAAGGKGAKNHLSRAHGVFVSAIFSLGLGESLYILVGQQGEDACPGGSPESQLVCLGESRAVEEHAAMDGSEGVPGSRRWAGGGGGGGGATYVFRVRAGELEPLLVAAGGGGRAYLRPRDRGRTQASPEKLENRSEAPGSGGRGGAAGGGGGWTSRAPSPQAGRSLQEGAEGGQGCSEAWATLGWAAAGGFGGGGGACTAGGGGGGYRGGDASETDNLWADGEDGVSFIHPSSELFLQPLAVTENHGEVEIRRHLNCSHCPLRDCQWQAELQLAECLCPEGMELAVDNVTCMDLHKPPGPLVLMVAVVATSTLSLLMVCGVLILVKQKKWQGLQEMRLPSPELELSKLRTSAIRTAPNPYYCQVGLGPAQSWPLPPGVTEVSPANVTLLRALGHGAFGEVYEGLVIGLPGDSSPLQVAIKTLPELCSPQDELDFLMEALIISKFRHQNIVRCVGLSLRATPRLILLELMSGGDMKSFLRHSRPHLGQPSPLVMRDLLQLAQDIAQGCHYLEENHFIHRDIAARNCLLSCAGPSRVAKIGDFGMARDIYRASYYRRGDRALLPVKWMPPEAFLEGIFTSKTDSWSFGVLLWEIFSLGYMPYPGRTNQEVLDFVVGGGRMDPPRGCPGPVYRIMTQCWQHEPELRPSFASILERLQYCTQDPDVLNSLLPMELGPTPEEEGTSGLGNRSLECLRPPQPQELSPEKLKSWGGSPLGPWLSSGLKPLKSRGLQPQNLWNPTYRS
smiles,measurement,setting,value
CNC(=O)c1ccc2c(c1)C(=O)c1ccc(Nc3ccc(F)c(NC(=O)C4CC4)c3)cc1CC2 [Compound 2015],remaining activity at 0.2 µM,"340 wild-type kinases [1]; 0.2 µM 2015, read-out: DAPK2 residual activity",116%
same,remaining activity at 1 µM,"340 wild-type kinases [1]; 1 µM 2015, read-out: DAPK2 residual activity",100%
same,remaining activity at 0.2 µM,"340 wild-type kinases [1]; DAPK2, 0.2 µM, read-out: residual activity",116%
same,remaining activity at 1 µM,"340 wild-type kinases [1]; DAPK2, 1 µM, read-out: residual activity",100%
same,remaining activity at 0.2 µM,"340 wild-type kinases [2]; 0.2 µM 2015, read-out: DYRK2 residual activity",95.7%
same,remaining activity at 1 µM,"340 wild-type kinases [2]; 1 µM 2015, read-out: DYRK2 residual activity",94.2%
same,remaining activity at 0.2 µM,"340 wild-type kinases [2]; DYRK2, 0.2 µM, read-out: residual activity",95.7%
same,remaining activity at 1 µM,"340 wild-type kinases [2]; DYRK2, 1 µM, read-out: residual activity",94.2%
same,remaining activity at 0.2 µM,"340 wild-type kinases [3]; 0.2 µM 2015, read-out: SGK3 residual activity",107%
same,remaining activity at 1 µM,"340 wild-type kinases [3]; 1 µM 2015, read-out: SGK3 residual activity",92.1%
same,remaining activity at 0.2 µM,"340 wild-type kinases [3]; SGK3, 0.2 µM, read-out: residual activity",107%
same,remaining activity at 1 µM,"340 wild-type kinases [3]; SGK3, 1 µM, read-out: residual activity",92%
same,remaining activity at 0.2 µM,"340 wild-type kinases [4]; 0.2 µM 2015, read-out: LTK residual activity",100%
same,remaining activity at 1 µM,"340 wild-type kinases [4]; 1 µM 2015, read-out: LTK residual activity",99.3%
same,remaining activity at 0.2 µM,"340 wild-type kinases [4]; LTK, 0.2 µM, read-out: residual activity",100%
same,remaining activity at 1 µM,"340 wild-type kinases [4]; LTK, 1 µM, read-out: residual activity",99.3%
same,remaining activity at 0.2 µM,"340 wild-type kinases [5]; 0.2 µM 2015, read-out: VEGFR2 residual activity",86.7%
same,remaining activity at 1 µM,"340 wild-type kinases [5]; 1 µM 2015, read-out: VEGFR2 residual activity",96.7%
same,remaining activity at 0.2 µM,"340 wild-type kinases [5]; VEGFR2, 0.2 µM, read-out: residual activity",86.7%
same,remaining activity at 1 µM,"340 wild-type kinases [5]; VEGFR2, 1 µM, read-out: residual activity",96.7%
same,remaining activity at 0.2 µM,"340 wild-type kinases [6]; 0.2 µM 2015, read-out: MAP3K10 residual activity",111%
same,remaining activity at 1 µM,"340 wild-type kinases [6]; 1 µM 2015, read-out: MAP3K10 residual activity",106%
same,remaining activity at 0.2 µM,"340 wild-type kinases [6]; MAP3K10, 0.2 µM, read-out: residual activity",111%
same,remaining activity at 1 µM,"340 wild-type kinases [6]; MAP3K10, 1 µM, read-out: residual activity",106%
same,remaining activity at 1 µM,"340 wild-type kinases [7]; 1 µM 2015, read-out: EIF2AK3 residual activity",86.3%
same,remaining activity at 0.2 µM,"340 wild-type kinases [7]; EIF2AK3, 0.2 µM, read-out: residual activity",93.3%
same,remaining activity at 1 µM,"340 wild-type kinases [7]; EIF2AK3, 1 µM, read-out: residual activity",86.3%
